Laboratory results published in ChEMBL document CHEMBL3244299, “Allylic esters as potential antitumor agents. Derivatives and analogues of 2,3-bis(hydroxymethyl)-7-oxabicyclo[2.2.1]hept-2-ene” (J Med Chem, 1979).
Active and inactive are the calls of the source. The calls are words filed in the database; no cut-off is given here.

What was measured:
L1210 [1] = experiment: Antitumor activity against mouse L1210 cells allografted in mouse; assay type: functional, cell-based
L1210 [2] = experiment: Cytotoxicity against mouse L1210 cells assessed as growth inhibition at 10^-4 M after 40 hrs relative to control; assay type: functional; details: L1210, 40 h, read-out: GI
L1210 [3] = experiment: Cytotoxicity against mouse L1210 cells assessed as growth inhibition after 40 hrs; assay type: functional
L1210 [4] = experiment: Cytotoxicity against mouse L1210 cells assessed as growth inhibition at 10^-5 M after 40 hrs relative to control; assay type: functional; details: L1210, 40 h, read-out: GI
L1210 [5] = experiment: Cytotoxicity against mouse L1210 cells assessed as growth inhibition at 10^-6 M after 40 hrs relative to control; assay type: functional; details: L1210, 40 h, read-out: GI
Mus musculus = organism: Mus musculus; experiment: Toxicity in mouse allografted with mouse P388 cells; assay type: organism-based
P388 = experiment: Antitumor activity against mouse P388 cells allografted in mouse assessed as tumor growth inhibition at 25 mg/kg relative to control; assay type: functional

SMILES | Activity (L1210 [1]) | inhibition of growth at 100 µM (L1210 [2]) | ID50 (L1210 [3]) | inhibition of growth at 10 µM (L1210 [4]) | inhibition of growth at 1 µM (L1210 [5]) | Activity (Mus musculus) | IC50 (L1210 [3]; Mus musculus, L1210, 40 h, read-out: ID50 (the source's name)) | T/C (P388)
CC(=O)OCC1=C(COC(C)=O)[C@@H]2O[C@H]1[C@H](O)[C@@H]2O | inactive | 41% | >1 ×10⁻⁴ M | 3% |  |  |  | 
CC(=O)OCC1=C(COC(C)=O)[C@@H]2O[C@H]1[C@H](OC(C)=O)[C@@H]2OC(C)=O | inactive | 34% | >1 ×10⁻⁴ M | 19% | 1% |  |  | 
CNC(=O)OCC1=C(COC(=O)NC)[C@@H]2O[C@H]1C(C(=O)OC)=C2C(=O)OC |  |  |  |  |  | Toxic |  | 
COC(=O)C1=C(C(=O)OC)[C@H]2O[C@@H]1C(COC(C)=O)=C2COC(C)=O | inactive | 93% |  | 93% | 93% |  | < 1000 nM | 
CCCCNC(=O)OCC1=C(COC(=O)NCCCC)[C@@H]2O[C@H]1C(C(=O)OC)=C2C(=O)OC |  |  |  |  |  |  |  | 123%
CCOC(=O)N1[C@@H]2O[C@@H](C(COC(C)=O)=C2COC(C)=O)N1C(=O)OCC | inactive | 78% | 3 ×10⁻⁵ M | 41% | 13% |  |  | 
